Our source for the IC50 and EC50 values is ChEMBL document CHEMBL5149981, “Carboxylesterase Notum Is a Druggable Target to Modulate Wnt Signaling” (J Med Chem, 2021).

As usually defined, the IC50 is the midpoint of a concentration-inhibition curve. The EC50 is the concentration needed to bring the measured effect to its halfway point. Read a low EC50 as an effect from little substance.

The target in assay [1] is T1, Palmitoleoyl-protein carboxylesterase NOTUM (Homo sapiens, UniProt Q6P988).
T1 sequence (Q6P988 whole entry): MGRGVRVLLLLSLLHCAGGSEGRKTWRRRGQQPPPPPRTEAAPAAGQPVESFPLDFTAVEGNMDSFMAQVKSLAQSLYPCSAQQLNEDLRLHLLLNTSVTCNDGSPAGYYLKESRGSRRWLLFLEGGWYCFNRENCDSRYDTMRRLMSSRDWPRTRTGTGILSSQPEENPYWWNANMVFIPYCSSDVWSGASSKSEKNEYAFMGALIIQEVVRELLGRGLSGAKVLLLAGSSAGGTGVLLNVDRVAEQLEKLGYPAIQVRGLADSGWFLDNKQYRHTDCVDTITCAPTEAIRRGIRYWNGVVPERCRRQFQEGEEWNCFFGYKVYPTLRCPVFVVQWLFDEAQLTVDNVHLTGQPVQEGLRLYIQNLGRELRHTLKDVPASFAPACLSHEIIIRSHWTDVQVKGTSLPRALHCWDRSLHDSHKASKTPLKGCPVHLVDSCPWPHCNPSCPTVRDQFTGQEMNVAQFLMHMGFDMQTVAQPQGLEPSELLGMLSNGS
Description: Inhibition of human Notum using OPTS substrate incubated for 1 hr by fluorescence based assay

In assay [2] the target is T1, Palmitoleoyl-protein carboxylesterase NOTUM. The source holds these as a separate data set.
Description: Inhibition of human Notum using OPTS substrate by fluorescence based assay
Assay [3] shares this target. This is another data set of the same source.
Description: Inhibition of C-terminal His-V5 tagged human Notum expressed in human HEK293F cells harbouring TCF/LEF luciferase reporter gene assessed as activation of Wnt signaling using WNT3A as substrate by Steady-Glo luciferase assay

In assay [1], `Cc1ccccc1OCC(=O)Nc1cccnc1` registered an IC50 of 33 µM.

In assay [2], `CC(=O)NCCc1c[nH]c2ccc(O)cc12` [ACETYLSEROTONIN] came in with an IC50 of 93.6 µM.

`Cc1sc2ncnc(SCC(=O)O)c2c1Cl` came in with an IC50 in assay [2] of 0.002 µM. The same molecule had an EC50 in assay [3] of 0.157 µM.
